In patent US8415336B2, “Cyclic (aza)indolizinecarboxamides, their preparation and their use as pharmaceuticals” (Sanofi, priority 2009, dated 2013):

These compounds were tested against T1, Recombinant human renin (Homo sapiens, UniProt P00797) (assay: Inhibition of renin (fluorogenic peptide substrate)). Conditions: recombinant human renin 5 nM, fluorogenic peptide substrate 10 μM, 2 h at room temperature, Tris buffer pH 8; compounds tested as the obtained salt.
T1 construct: purchased Cayman 10006217
T1 sequence (P00797 67-406): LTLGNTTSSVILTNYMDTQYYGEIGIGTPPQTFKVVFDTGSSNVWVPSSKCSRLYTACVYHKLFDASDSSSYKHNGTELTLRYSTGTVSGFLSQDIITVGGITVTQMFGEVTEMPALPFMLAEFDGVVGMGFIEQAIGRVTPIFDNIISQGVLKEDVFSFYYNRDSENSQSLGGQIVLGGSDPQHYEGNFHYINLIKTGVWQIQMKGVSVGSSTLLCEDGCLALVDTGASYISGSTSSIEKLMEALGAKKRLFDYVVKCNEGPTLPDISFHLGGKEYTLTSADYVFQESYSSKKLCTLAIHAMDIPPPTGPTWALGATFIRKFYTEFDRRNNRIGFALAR
Assay type: biochemical
Method: Recombinant human renin (Cayman, no. 10006217) at a concentration of 5 nM was incubated with the test compounds at various concentrations and the synthetic substrate Dabcyl-γ-Abu-Ile-His-Pro-Phe-His-Leu-Val-Ile-His-Thr-EDANS (Bachem, no. M-2050; Dabcyl means the 4-(4-dimethylamino-phenylazo)-benzoyl group and EDANS means the amide with 5-[(2-aminoethyl)amino]-naphthalene-1-sulfonic acid) at a concentration of 10 μM for 2 h at room temperature in 0.05 M Tris buffer (pH 8) containing 0.1 M NaCl, 2.5 mM EDTA and 1.25 mg/ml bovine serum albumin. The increase in fluorescence, which is due to fluorescence resonance energy transfer, was recorded at an excitation wavelength of 330 nm and an emission wavelength of 485 nm in a microplate spectrofluorometer. Inhibitory concentrations IC50 were calculated from the percentage of inhibition of renin activity as a function of the concentration of the test compound. […] Representative IC50 values, which were determined with the compounds in the form of the obtained salt indicated in the examples above, are listed in Table 4.

Structure (SMILES)	IC50
Cc1c(F)cccc1Cc1c(-c2cccc(F)c2)c2ccccn2c1C(=O)N1CCNCC1 [Example 20, [2-(3-fluoro-2-methyl-benzyl)-1-(3-fluoro-phenyl)-indolizin-3-yl]-piperazin-1-yl-methanone]	3.4 nM
Cc1c(F)cccc1Cc1c(-c2ccccc2)c2ccccn2c1C(=O)N1CCN[C@@H](CC(=O)NCCS(C)(=O)=O)C1 [Example 31]	21 nM
Cc1c(F)cccc1Cc1c(-c2ccccc2)c2ccccn2c1C(=O)N1CCN[C@@H](CC(=O)NCc2cccnc2)C1 [Example 32]	38 nM
Cc1c(F)cccc1Cc1c(-c2ccccc2)c2ccccn2c1C(=O)N1CCN[C@@H](CO)C1 [Example 22]	100 nM
COC(=O)CCNC(=O)C[C@H]1CN(C(=O)c2c(Cc3cccc(F)c3C)c(-c3ccccc3)c3ccccn23)CCN1 [Example 30]	31 nM
COCCN(C)C(=O)C[C@H]1CN(C(=O)c2c(Cc3cccc(F)c3C)c(-c3ccccc3)c3cc(C(=O)N(C)C)cnn23)CCN1 [Example 46]	10 nM
Cc1c(F)cccc1Cc1c(-c2ccccc2)c2cc(C(=O)N3CCCCC3)cnn2c1C(=O)N1CCN[C@@H](CC(=O)NCCO)C1 [Example 39]	7.4 nM
Cc1c(F)cccc1Cc1c(-c2ccccc2)c2cc(O)cnn2c1C(=O)N1CCNCC1 [Example 10, [6-(3-Fluoro-2-methyl-benzyl)-3-hydroxy-5-phenyl-pyrrolo[1,2-b]pyridazin-7-yl]-piperazin-1-yl-methanone]	8.2 nM
CNC(=O)CC[C@H]1CN(C(=O)c2c(Cc3cccc(F)c3C)c(-c3ccccc3)c3ccccn23)CCN1 [Example 26]	230 nM
Cc1c(F)cccc1Cc1c(-c2ccccc2)c2ccccn2c1C(=O)N1CCN[C@@H](CC(=O)NCC(C)(C)C(N)=O)C1 [Example 7, 3-(2-{(S)-4-[2-(3-Fluoro-2-methyl-benzyl)-1-phenyl-indolizine-3-carbonyl]-piperazin-2-yl}-acetylamino)-2,2-dimethyl-propionamide]	2.6 nM
Cc1c(F)cccc1Cc1c(C(=O)N2CCN[C@@H](C)C2)c2ccccn2c1-c1ccccc1 [Example 15, [2-(3-Fluoro-2-methyl-benzyl)-3-phenyl-indolizin-1-yl)-((S)-3-methyl-piperazin-1-yl)-methanone]	76 nM
CNC(=O)c1ccc2c(-c3ccccc3)c(Cc3cccc(F)c3C)c(C(=O)N3CCNCC3)n2c1 [Example 13, 2-(3-Fluoro-2-methyl-benzyl)-1-phenyl-3-(piperazine-1-carbonyl)-indolizine-6-carboxylic acid methylamide]	64 nM
Cc1c(F)cccc1Cc1c(C(=O)N2CCNCC2)c2ccccn2c1-c1ccccc1 [Example 11, [2-(3-Fluoro-2-methyl-benzyl)-3-phenyl-indolizin-1-yl]-piperazin-1-yl-methanone]	23 nM
Cc1c(F)cccc1Cc1c(-c2ccccc2)c2ccccn2c1C(=O)N1CCNCC1 [Example 1, [2-(3-Fluoro-2-methyl-benzyl)-1-phenyl-indolizin-3-yl]-piperazin-1-yl-methanone]	7.1 nM
Cc1cccc(C)c1Cc1c(-c2ccccc2)c2ccccn2c1C(=O)N1CCN[C@H](C)C1 [Example 17, [2-(2,6-Dimethyl-benzyl)-1-phenyl-indolizin-3-yl)-((R)-3-methyl-piperazin-1-yl)-methanone]	870 nM
COc1ccn2c(C(=O)N3CCNCC3)c(Cc3cccc(F)c3C)c(-c3ccccc3)c2c1 [Example 35, [2-(3-fluoro-2-methyl-benzyl)-7-methoxy-1-phenyl-indolizin-3-yl]-piperazin-1-yl-methanone]	28 nM
Cc1c(F)cccc1Cc1c(-c2ccccc2)c2cccnn2c1C(=O)N1CCNCC1 [Example 9, [6-(3-Fluoro-2-methyl-benzyl)-5-phenyl-pyrrolo[1,2-b]pyridazin-7-yl]-piperazin-1-yl-methanone]	4.3 nM
Cc1c(F)cccc1Cc1c(C2CCCCC2)c2ccccn2c1C(=O)N1CCNCC1 [Example 2, [1-Cyclohexyl-2-(3-fluoro-2-methyl-benzyl)-indolizin-3-yl]-piperazin-1-yl-methanone]	38 nM
Cc1c(F)cccc1Cc1c(C(=O)N2CCNCC2)c2cc(Br)ccn2c1-c1ccccc1 [Example 12, [7-Bromo-2-(3-fluoro-2-methyl-benzyl)-3-phenyl-indolizin-1-yl]-piperazin-1-yl-methanone]	360 nM
Cc1c(F)cccc1Cc1c(-c2ccccc2)c2ccccn2c1C(=O)N1CCN[C@@H](CC(=O)NCC2CCOCC2)C1 [Example 6, 2-{(S)-4-[2-(3-Fluoro-2-methyl-benzyl)-1-phenyl-indolizine-3-carbonyl]-piperazin-2-yl}-N-(tetrahydropyran-4-ylmethyl)-acetamide]	2.6 nM
